From patent US10653139B2 (priority 2015, dated 2020)

Legend:
Aspergillus candidus [1] = test: Antifungal in vitro assay, direct plating; assay type: cell-based; conditions: observed over 25 weeks
Procedure: (§1) The screening of S. aromaticum and M. pulegium essential oils and their major components, eugenol and pulegone, respectively, was carried out using a direct plating technique in order to evaluate their ability to inhibit the growth of Aspergillus candidus, A. niger, Penicillium islandicum and Fusarium culmorum.
(§2) In vitro assays. For the determination of direct plating effect of essential oil on the growth of the fungi on different concentrations 0.5, 1.0, 2.5 and 5.0 μL/mL of essential oil were put on the surface of a Petri dish with 20 mL of potato dextrose agar medium (PDA). These Petri dishes were inoculated with a 5 mm diameter disk of fungi grown on PDA medium for 8 days at 28° C. This disk was placed on the agar surface and the dish sealed immediately with parafilm to prevent loss of essential oil to the atmosphere and incubated at 28° C. Inhibition concentrations of essential oil were determined by periodic evaluation of fungi growth during 25 weeks. For each concentration, four replicate dishes were used.

Aspergillus niger [2] = test: Antifungal in vitro assay, direct plating; assay type: cell-based; conditions: observed over 25 weeks
Procedure: as §1, §2

Fusarium culmorum [3] = test: Antifungal in vitro assay, direct plating; assay type: cell-based; conditions: observed over 25 weeks
Procedure: as §1, §2

Penicillium islandicum [4] = test: Antifungal in vitro assay, direct plating; assay type: cell-based; conditions: observed over 25 weeks
Procedure: as §1, §2

Aspergillus candidus [5] = test: Antifungal in vitro assay, volatile (vapour) phase; assay type: cell-based; conditions: observed over 25 weeks
Procedure: (§3) Petri dishes were inoculated with a 5 mm diameter disk of fungi grown on PDA medium for 8 days at 28° C. This disk was placed on the agar surface and the dish sealed immediately with parafilm and incubated at 28° C. Inhibition concentrations of volatile phase of essential oils were determined by a periodic evaluation the fungi growth over 25 weeks. In the control, equal amounts of sterilized water was added to filter papers and placed onto the lid of Petri dishes. For each concentration, four replicate Petri dishes were used. The absence of growth was recorded during 25 weeks.

Aspergillus niger [6] = test: Antifungal in vitro assay, volatile (vapour) phase; assay type: cell-based; conditions: observed over 25 weeks
Procedure: as §3

Fusarium culmorum [7] = test: Antifungal in vitro assay, volatile (vapour) phase; assay type: cell-based; conditions: observed over 25 weeks
Procedure: as §3

Penicillium islandicum [8] = test: Antifungal in vitro assay, volatile (vapour) phase; assay type: cell-based; conditions: observed over 25 weeks
Procedure: as §3

[9] = test system: fungi growth on dried grains; test: Antifungal in vivo test on dried grains, vapour phase; conditions: dried grains on PDA, 25 weeks
Text: 1.2 In vivo tests. The efficacy screening of the vapour of clove and pennyroyal essential oils (OE) and their main active components (MAC) eugenol, pulegone or their mixture was, carried out using a modified technique describe in Bluma, R., Landa, M. F., Etcheverry, M., 2009. Impact of volatile compounds generated by essential oils on Aspergillus section Flavi growth parameters and aflatoxin accumulation. J. Sci. Food Agric. 89 (9), 1473-1480. For the determination of volatile phase effect of essential oil on fungi growth different concentrations of essential oil were added to sterile filter papers (10 mm diameter, Whatman No. 1), namely, 0.5 μL/mL, 1.0 μL/mL, 2.5 μL/mL and 5.0 μL/mL and placed adherent to the inner surface of each Petri dishes lid (90 mm).
The grains were disinfected at surface as describe by Pitt & Hocking (Pitt, J. I., Hocking, A. D., 2009. Fungi and food spoilage. Springer, New York).
Ten dried grains were placed on Petri dishes with 20 mL of PDA medium with chloramphenicol (1%). These dishes were sealed immediately with parafilm and incubated at 28° C. Inhibition concentrations of volatile phase of essential oils were determined by periodic observation of fungi growth over 25 weeks. Control with no treated grains was also performed. For each concentration ten replicates were done.

Acanthoscelides obtectus = test: Insecticidal activity test, vapour phase, bean; assay type: in vivo; conditions: 7.5 μL/mL
grain maize germination = test: In vitro germination assay of treated seeds; conditions: 3.5 months treatments, in vitro after 4 days (FIG. 2A)
Procedure: (§4) FIG. 2—Represents the effect of 3.5 months treatments on grain maize germination: (A) in vitro after 4 days and (B) in vivo 17 days after sowing (DAS).
In an embodiment, for the in vitro germination assay were used 10 seeds and 5 ml of sterile water per petri dish and the incubation temperature was ±25° C.

[10] = test system: plants produced from treated seeds; test: In vivo effects on plants from treated seeds (pots in greenhouse); parameters: species or system maize
Procedure: as §4
In an embodiment, the assay was performed in pots in a greenhouse with environmental monitoring (temperature, humidity and PAR intensity) and controlled irrigation. For each treatment, 6 pots with 2 plants each were used. […] No relevant differences in phenotypic (germination, chlorophyll and height) and physiological parameters (photosynthesis, stomatal conductance and transpiration (FIG. 3) were found.

Sitophilus zeamais = test: Insecticidal activity test, vapour phase, maize; assay type: in vivo; conditions: 18.8 μL/mL
Procedure: Maize grain with an average moisture content of 14±0.5% and ten unsexed adult insects aged from 1 to 4 days were used. The stock cultures of insects and the biological tests were carried out in a single incubator at 27° C. and 75±5% relative humidity.
Control with non-treated samples was also performed. Ten replicates per treatment and control were set up. All the replicates were kept in an incubator at 27° C. and 75%±5% relative humidity.
The progeny (F1) was evaluated monthly by common procedures after removing the parent adults. Insect mortality was assessed during five months (0.25, 1, 8, 134 and 149 days). The development index and the life cycle were also evaluated.

[11] = Container atmosphere composition (GC-PID); assay type: physicochemical; conditions: after 20 days of storage, one or two devices, 24 ml pulegone, 65 L container, maintained 4/5 months
Procedure: To study the evolution of the spatial and temporal pulegone concentration, two containers with 1 and 2 release devices were used, similar to those described in 4.1. In each container, 24 ml of pulegone were impregnated in cotton.
The spatial concentration profiles along time were outlined by collecting over time samples of 500 μL from the container atmosphere, through the 6 sampling ports (detailed presentation in FIG. 1) using a 500 μL gas-tight Hamilton syringe.
Nitrogen was used as carrier gas at a constant 2 mL flow rate.

C=CCc1ccc(O)c(OC)c1 [Eugenol, eugenol]
Time (weeks), period of storage without any fungal contamination (Aspergillus candidus [1]; 0.5 μL/mL): 25 weeks | Time (weeks), period of storage without any fungal contamination (Aspergillus candidus [1]; 1.0 μL/mL): 25 weeks | Time (weeks), period of storage without any fungal contamination (Aspergillus candidus [1]; 2.5 μL/mL): 25 weeks | Time (weeks), period of storage without any fungal contamination (Aspergillus candidus [1]; 5.0 μL/mL): 25 weeks | Time (weeks), period of storage without any fungal contamination (Aspergillus niger [2]; 0.5 μL/mL): 25 weeks | Time (weeks), period of storage without any fungal contamination (Aspergillus niger [2]; 1.0 μL/mL): 25 weeks | Time (weeks), period of storage without any fungal contamination (Aspergillus niger [2]; 2.5 μL/mL): 25 weeks | Time (weeks), period of storage without any fungal contamination (Aspergillus niger [2]; 5.0 μL/mL): 25 weeks | Time (weeks), period of storage without any fungal contamination (Fusarium culmorum [3]; 0.5 μL/mL): 25 weeks | Time (weeks), period of storage without any fungal contamination (Fusarium culmorum [3]; 1.0 μL/mL): 25 weeks | Time (weeks), period of storage without any fungal contamination (Fusarium culmorum [3]; 2.5 μL/mL): 25 weeks | Time (weeks), period of storage without any fungal contamination (Fusarium culmorum [3]; 5.0 μL/mL): 25 weeks | Time (weeks), period of storage without any fungal contamination (Penicillium islandicum [4]; 0.5 μL/mL): 25 weeks | Time (weeks), period of storage without any fungal contamination (Penicillium islandicum [4]; 1.0 μL/mL): 25 weeks | Time (weeks), period of storage without any fungal contamination (Penicillium islandicum [4]; 2.5 μL/mL): 25 weeks | Time (weeks), period of storage without any fungal contamination (Penicillium islandicum [4]; 5.0 μL/mL): 25 weeks | Time (weeks), period of storage without any fungal contamination (Aspergillus candidus [5]; 0.5 μL/mL): 21 weeks | Time (weeks), period of storage without any fungal contamination (Aspergillus candidus [5]; 1.0 μL/mL): 25 weeks | Time (weeks), period of storage without any fungal contamination (Aspergillus candidus [5]; 2.5 μL/mL): 25 weeks | Time (weeks), period of storage without any fungal contamination (Aspergillus candidus [5]; 5.0 μL/mL): 25 weeks | Time (weeks), period of storage without any fungal contamination (Aspergillus niger [6]; 0.5 μL/mL): 23 weeks | Time (weeks), period of storage without any fungal contamination (Aspergillus niger [6]; 1.0 μL/mL): 25 weeks | Time (weeks), period of storage without any fungal contamination (Aspergillus niger [6]; 2.5 μL/mL): 25 weeks | Time (weeks), period of storage without any fungal contamination (Aspergillus niger [6]; 5.0 μL/mL): 25 weeks | Time (weeks), period of storage without any fungal contamination (Fusarium culmorum [7]; 0.5 μL/mL): 25 weeks | Time (weeks), period of storage without any fungal contamination (Fusarium culmorum [7]; 1.0 μL/mL): 25 weeks | Time (weeks), period of storage without any fungal contamination (Fusarium culmorum [7]; 2.5 μL/mL): 25 weeks | Time (weeks), period of storage without any fungal contamination (Fusarium culmorum [7]; 5.0 μL/mL): 25 weeks | Time (weeks), period of storage without any fungal contamination (Penicillium islandicum [8]; 0.5 μL/mL): 25 weeks | Time (weeks), period of storage without any fungal contamination (Penicillium islandicum [8]; 1.0 μL/mL): 25 weeks | Time (weeks), period of storage without any fungal contamination (Penicillium islandicum [8]; 2.5 μL/mL): 25 weeks | Time (weeks), period of storage without any fungal contamination (Penicillium islandicum [8]; 5.0 μL/mL): 25 weeks | Time (weeks), period of storage without any fungal contamination, in vivo ([9]; 0.5 μL/mL): 2 weeks | Time (weeks), period of storage without any fungal contamination, in vivo ([9]; 2.5 μL/mL): 25 weeks | Time (weeks), period of storage without any fungal contamination, in vivo ([9]; 5.0 μL/mL): 25 weeks | Insect Mortality (%) (Acanthoscelides obtectus; 0.25 days): 0% | Insect Mortality (%) (Acanthoscelides obtectus; 1 day (control 29)): 70% | Insect Mortality (%) (Acanthoscelides obtectus; 8 days (control 100)): 100% | Insect Mortality (%) (Acanthoscelides obtectus; 134 days (control 100)): 100% | Insect Mortality (%) (Acanthoscelides obtectus; 149 days (control 100)): 100%

C=C(C)[C@H]1CC=C(C)CC1 [Limonene, reference compound]
Insect Mortality (%) (Acanthoscelides obtectus; 0.25 days): 0% | Insect Mortality (%) (Acanthoscelides obtectus; 1 day (control 29)): 100% | Insect Mortality (%) (Acanthoscelides obtectus; 8 days (control 100)): 100% | Insect Mortality (%) (Acanthoscelides obtectus; 134 days (control 100)): 100% | Insect Mortality (%) (Acanthoscelides obtectus; 149 days (control 100)): 100% | seed germination capacity, in vitro (grain maize germination): significant decrease | height of plants relatively to the control ([10]; plants from treated seeds (FIG. 4A)): small variation | decrease in total chlorophyll content related to the control ([10]; plants obtained from treated grains): 1.9% | germination, in vivo ([10]; pots in greenhouse, figure printed in brackets after 'really affected the germination'): 49.1%

CC(C)=C1CC[C@@H](C)CC1=O [Pulegone, pulegone]
Time (weeks), period of storage without any fungal contamination, in vivo ([9]; 0.5 μL/mL): 2 weeks | Time (weeks), period of storage without any fungal contamination, in vivo ([9]; 2.5 μL/mL): 20 weeks | Time (weeks), period of storage without any fungal contamination, in vivo ([9]; 5.0 μL/mL): 25 weeks | Insect Mortality (%) (Sitophilus zeamais; 0.25 days): 46% | Insect Mortality (%) (Sitophilus zeamais; 1 day): 100% | Insect Mortality (%) (Sitophilus zeamais; 8 days): 100% | Insect Mortality (%) (Sitophilus zeamais; 134 days): 100% | Insect Mortality (%) (Sitophilus zeamais; 149 days): 100% | Insect Mortality (%) (Acanthoscelides obtectus; 0.25 days): 0% | Insect Mortality (%) (Acanthoscelides obtectus; 1 day (control 29)): 100% | Insect Mortality (%) (Acanthoscelides obtectus; 8 days (control 100)): 100% | Insect Mortality (%) (Acanthoscelides obtectus; 134 days (control 100)): 100% | Insect Mortality (%) (Acanthoscelides obtectus; 149 days (control 100)): 100% | stabilized concentration level in the container atmosphere [11]: 10 % of the standard pulegone saturation value
